The text below walks through data of US9708340B2, “Urea derivatives and their use as fatty-acid binding protein (FABP) inhibitors” (Hoffmann-La Roche Inc., priority 2013, dated 2017).

As usually defined, the IC50 is the concentration needed to halve the response being measured.

The test system of assay [1] is ob/ob mice. To be noted: cited from earlier work.
Assay [2] deals with ApoE KO mice. The following applies: cited from earlier work.
The test system of assay [3] is mice under HF diet. The following applies: cited from earlier work.
The target of assay [4] is human FABP4 (huFABP4) (Homo sapiens (Human), UniProt P15090). The experiment in a line: Tb TR-FRET assay, binding of Bodipy labeled fatty acid to His6 tagged huFABP4. To be noted: 50 nM FABP protein, […] Bodipy labeled fatty acid; read-out: IC50 h-fabp4-ecoli-r. A general note: Time-resolved FRET reads energy transfer from a long-lived donor to a nearby acceptor.
Chain of human FABP4 (huFABP4) (P15090 whole entry): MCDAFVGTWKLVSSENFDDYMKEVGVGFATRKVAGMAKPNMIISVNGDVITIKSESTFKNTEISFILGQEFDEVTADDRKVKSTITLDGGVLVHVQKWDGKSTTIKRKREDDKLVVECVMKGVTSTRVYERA
Assay [5] deals with human FABP5 (huFABP5) (Homo sapiens (Human), UniProt Q01469). The assay can be described thus: Tb TR-FRET assay, binding of Bodipy labeled fatty acid to His6 tagged huFABP5. To be noted: 50 nM FABP protein, […] Bodipy labeled fatty acid; read-out: IC50 h-fabp5-ecoli-r.
Chain of human FABP5 (huFABP5) (Q01469 whole entry): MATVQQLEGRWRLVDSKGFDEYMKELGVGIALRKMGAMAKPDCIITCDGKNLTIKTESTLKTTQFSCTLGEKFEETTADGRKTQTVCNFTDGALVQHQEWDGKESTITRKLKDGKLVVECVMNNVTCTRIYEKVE

Take `CCc1c(-c2ccccc2)c(-c2ccccc2)nn1-c1ccccc1-c1cccc(OCC(=O)O)c1` [BMS309403]: in assay [1] (clamp study in ob/ob mice), the “glucose uptake in muscle and adipose” value was “increased”; the hepatic glucose production entry is recorded as “reduction”. For the same molecule, in assay [1] (ob/ob mice), the “body weight and energy consumption” value is recorded as “no change”; the hepatic steatosis result was “reduction”. In addition, in assay [2], the atherosclerotic placques formation entry is reported as “decrease”.
`O=C(O)[C@H]1CCCN1C(=O)Nc1ccccc1Oc1ccccc1` [Compound 3]: in assay [3], the “insulin and glucose tolerance” value was “no improvement”; the “plasma triglyceride and free fatty acid” value was “reduction”.
Consider `O=C(O)[C@H]1CCCN1C(=O)Nc1cc(Cl)ccc1-c1ccc(F)cc1` [Example 54, (R)-1-(4-chloro-4′-fluorobiphenyl-2-ylcarbamoyl)pyrrolidine-2-carboxylic acid], for which the IC50 in assay [4] is 60 nM; in assay [5], over 29600 nM.
The like results for `O=C(O)[C@H]1CCCN1C(=O)Nc1cc(Cl)ccc1-c1cccc(Cl)c1` [Example 55, (R)-1-(3′,4-dichlorobiphenyl-2-ylcarbamoyl)pyrrolidine-2-carboxylic acid] were, in that order, 770 nM and over 50000 nM.
For `NC(=O)c1cccc(-c2ccc(Cl)cc2NC(=O)N2CCC[C@@H]2C(=O)O)c1` [Example 56, (R)-1-(3′-carbamoyl-4-chlorobiphenyl-2-ylcarbamoyl)pyrrolidine-2-carboxylic acid] the same measures were 11100 nM and over 50000 nM.
For `O=C(O)[C@H]1CCCN1C(=O)Nc1cc(Cl)ccc1C1=CCCCC1` [Example 57, (R)-1-[5-chloro-2-(cyclohexen-1-yl)phenylcarbamoyl]pyrrolidine-2-carboxylic acid] the same measures were 1100 nM and over 50000 nM.
As to `O=C(O)[C@H]1CCCN1C(=O)Nc1cc(Cl)ccc1-c1ccncc1` [Example 58, (R)-1-(5-chloro-2-(pyridin-4-yl)phenylcarbamoyl)pyrrolidine-2-carboxylic acid], the IC50 in assay [4] is 2000 nM; in assay [5], over 50000 nM.
Consider `O=C(O)[C@H]1CCCN1C(=O)Nc1cc(Cl)ccc1-c1ccc(Cl)cc1` [Example 59, (R)-1-(4,4′-dichlorobiphenyl-2-ylcarbamoyl)pyrrolidine-2-carboxylic acid], for which the figures for the IC50 in assay [4] and in assay [5] were 2080 nM and over 50000 nM, respectively.
The like results for `COc1ccc(-c2ccc(Cl)cc2NC(=O)N2CCC[C@@H]2C(=O)O)cc1` [Example 60, (R)-1-(4-chloro-4′-methoxybiphenyl-2-ylcarbamoyl)pyrrolidine-2-carboxylic acid] were, in that order, 3450 nM and over 50000 nM.
For `Cc1ccccc1-c1ccc(Cl)cc1NC(=O)N1CCC[C@@H]1C(=O)O` [Example 61, (R)-1-(4-chloro-2′-methylbiphenyl-2-ylcarbamoyl)pyrrolidine-2-carboxylic acid] the same measures were 2750 nM and over 50000 nM.
The like results for `CCc1ccc(-c2ccccc2)c(NC(=O)N2CCC[C@@H]2C(=O)O)c1` [Example 62, (R)-1-(4-ethylbiphenyl-2-ylcarbamoyl)pyrrolidine-2-carboxylic acid] were, in that order, 1860 nM and over 50000 nM.
Turning to `O=C(O)[C@H]1CCN1C(=O)Nc1cc(Cl)ccc1-c1ccc(F)cc1F` [Example 63, (R)-1-(4-chloro-2′,4′-difluorobiphenyl-2-ylcarbamoyl)azetidine-2-carboxylic acid], the figures for the IC50 in assay [4] and in assay [5] were 30 nM and over 50000 nM, respectively.
Take `COc1cc(Cl)cc(NC(=O)N2CC[C@@H]2C(=O)O)c1-c1ccc(F)cc1` [Example 64, (R)-1-(4-chloro-4′-fluoro-6-methoxybiphenyl-2-ylcarbamoyl)azetidine-2-carboxylic acid]: the IC50 came to 20 nM in assay [4] and 6660 nM in assay [5].
